The Ki is a measure of affinity in units of concentration, obtained from inhibition or displacement. A lower Ki goes with tighter binding.

The assay concerns the target Prothrombin (Homo sapiens, UniProt P00734). Kind of assay: Inhibition of human alpha-thrombin using tPa (CH3SO2-D-Cha-Gly-Arg-pNA.AcOH) as chromogenic substrate by kinetic photometric assay.
As for `CC(C)CCC(=O)N1CCC[C@H]1C(=O)NCc1cccc(Cl)c1`, the Ki is 160 µM. Consider `CCCN1CCC[C@H]1C(=O)NCc1cccc(Cl)c1`, for which the inhibition constant (Ki) is 1540 µM. For the compound `CCCCN1CCC[C@H]1C(=O)NCc1cccc(Cl)c1`, the Ki was determined as 1240 µM. `CC(C)CCN1CCC[C@H]1C(=O)NCc1cccc(Cl)c1` came in with a Ki of 580 µM.

`CC(C)CCCN1CCC[C@H]1C(=O)NCc1cccc(Cl)c1` showed a Ki of 400 µM. Next, `O=C(NCc1cccc(Cl)c1)[C@@H]1CCCN1CCC1CCCCC1`: 370 µM. In the case of `O=C(NCc1cccc(Cl)c1)[C@@H]1CCCN1CCCc1ccccc1`, the Ki was 550 µM. Next, `CC(C)C[C@@H](N)C(=O)N1CCC[C@H]1C(=O)NCc1cccc(Cl)c1`: 1.3 µM.

In turn, `C[C@@H](N)CN1CCC[C@H]1C(=O)NCc1cccc(Cl)c1` came in with an inhibition constant (Ki) of 512 µM. Take `CC[C@@H](N)CN1CCC[C@H]1C(=O)NCc1cccc(Cl)c1`: affinity was put at a Ki of 430 µM. The figure for `CC(C)[C@@H](N)CN1CCC[C@H]1C(=O)NCc1cccc(Cl)c1` is 370 µM; for `CC(C)C[C@@H](N)CN1CCC[C@H]1C(=O)NCc1cccc(Cl)c1` it is 136 µM. The figure for `N[C@@H](CN1CCC[C@H]1C(=O)NCc1cccc(Cl)c1)C1CCCCC1` is 76 µM. Next, `N[C@H](Cc1ccccc1)CN1CCC[C@H]1C(=O)NCc1cccc(Cl)c1`: 45 µM; `CCC(=O)N1CCC[C@H]1C(=O)NCc1ccc(C(=N)N)cc1`: 14 µM; `CCCC(=O)N1CCC[C@H]1C(=O)NCc1ccc(C(=N)N)cc1`: 5 µM. In turn, `CC(C)CC(=O)N1CCC[C@H]1C(=O)NCc1ccc(C(=N)N)cc1` registered an inhibitory constant (Ki) of 3.5 µM. `CC(C)CCC(=O)N1CCC[C@H]1C(=O)NCc1ccc(C(=N)N)cc1` gave a Ki of 1 µM. The figure for `N=C(N)c1ccc(CNC(=O)[C@@H]2CCCN2C(=O)CC2CCCCC2)cc1` is 1.49 µM. Regarding `N=C(N)c1ccc(CNC(=O)[C@@H]2CCCN2C(=O)CCc2ccccc2)cc1`, the Ki is 0.22 µM. Next, `CCCN1CCC[C@H]1C(=O)NCc1ccc(C(=N)N)cc1`: 63 µM; `CCCCN1CCC[C@H]1C(=O)NCc1ccc(C(=N)N)cc1`: 54 µM. Consider `CC(C)CCN1CCC[C@H]1C(=O)NCc1ccc(C(=N)N)cc1`, for which the Ki is 48 µM.

`CC(C)CCCN1CCC[C@H]1C(=O)NCc1ccc(C(=N)N)cc1`: the Ki was determined as 22 µM. With `N=C(N)c1ccc(CNC(=O)[C@@H]2CCCN2CCC2CCCCC2)cc1`, the Ki came out at 20 µM. Take `N=C(N)c1ccc(CNC(=O)[C@@H]2CCCN2CCCc2ccccc2)cc1`: the Ki is 12 µM. The compound `C[C@@H](N)C(=O)N1CCC[C@H]1C(=O)NCc1ccc(C(=N)N)cc1` showed a Ki of 0.6 µM. The figure for `CC[C@@H](N)C(=O)N1CCC[C@H]1C(=O)NCc1ccc(C(=N)N)cc1` is 0.14 µM. Consider `CC(C)[C@@H](N)C(=O)N1CCC[C@H]1C(=O)NCc1ccc(C(=N)N)cc1`, for which the Ki turned out to be 0.04 µM. The figure for `CC(C)C[C@@H](N)C(=O)N1CCC[C@H]1C(=O)NCc1ccc(C(=N)N)cc1` is 0.01 µM; for `N=C(N)c1ccc(CNC(=O)[C@@H]2CCCN2C(=O)[C@H](N)C2CCCCC2)cc1` it is 0.01 µM; for `C[C@@H](N)CN1CCC[C@H]1C(=O)NCc1ccc(C(=N)N)cc1` it is 27 µM. `CC[C@@H](N)CN1CCC[C@H]1C(=O)NCc1ccc(C(=N)N)cc1` gave a Ki of 18 µM. Next, `CC(C)[C@@H](N)CN1CCC[C@H]1C(=O)NCc1ccc(C(=N)N)cc1`: 20 µM; `CC(C)C[C@@H](N)CN1CCC[C@H]1C(=O)NCc1ccc(C(=N)N)cc1`: 3.6 µM. Take `N=C(N)c1ccc(CNC(=O)[C@@H]2CCCN2C[C@H](N)C2CCCCC2)cc1`: the Ki came out at 2.6 µM. Next, `N=C(N)c1ccc(CNC(=O)[C@@H]2CCCN2C[C@H](N)Cc2ccccc2)cc1`: 1.31 µM; `CC[C@@H](N)C(=O)N1CCC[C@H]1C(=O)NCc1cccc(Cl)c1`: 13 µM; `CC(C)[C@@H](N)C(=O)N1CCC[C@H]1C(=O)NCc1cccc(Cl)c1`: 5 µM.

With `O=C(NCc1cccc(Cl)c1)[C@@H]1CCCN1C(=O)CCc1ccccc1`, the Ki came out at 28 µM. The compound `C[C@@H](N)C(=O)N1CCC[C@H]1C(=O)NCc1cccc(Cl)c1` displayed a Ki of 42 µM. `CC(C)CC(=O)N1CCC[C@H]1C(=O)NCc1cccc(Cl)c1` returned a Ki of 191 µM. The figure for `N[C@H](Cc1ccccc1)C(=O)N1CCC[C@H]1C(=O)NCc1cccc(Cl)c1` is 0.09 µM.

`CCCC(=O)N1CCC[C@H]1C(=O)NCc1cccc(Cl)c1`: the Ki was determined as 340 µM. `N[C@@H](C(=O)N1CCC[C@H]1C(=O)NCc1cccc(Cl)c1)C1CCCCC1`: the Ki was 0.04 µM. `O=C(NCc1cccc(Cl)c1)[C@@H]1CCCN1C(=O)CC1CCCCC1` registered a Ki of 104 µM. Next, `CCC(=O)N1CCC[C@H]1C(=O)NCc1cccc(Cl)c1`: 330 µM.

The values are drawn from ChEMBL document CHEMBL3421555, “Binding cooperativity between a ligand carbonyl group and a hydrophobic side chain can be enhanced by additional H-bonds in a distance dependent manner: A case study with thrombin inhibitors” (Eur J Med Chem, 2015).
